≈ marks a conversion by molar mass, not a printed value. Where two headings read alike, the source gives them in different places. Marks after values point to notes of the source that are not given here.
How the values were obtained:
[1] = test system: MCF7 cells, GFP-alpha-tubulin; experiment: Analysis of microtubule dynamics, time-lapse microscopy; assay type: cell-based, human
[2] = test system: MCF7 human breast carcinoma cells; experiment: Mitotic progression (mitotic index); assay type: cell-based; conditions: 20 hours, read-out: Mitotic block Ave. IC50 ± sd
Procedure: The fraction of cells in mitosis at a given drug concentration (mitotic index) was determined in the breast cancer cell line MCF7. Cells were plated at a density of 3×10^4 cells/ml in six-well plates. After 24 hours, cells were incubated in the absence or presence of drug over a range of concentrations (1 nM to 1 μM) for 20 hours. […] Cells were fixed with 10% formalin in PBS overnight at 37° C., permeabilized in methanol for 10 minutes, and stained with 4,6-diamidino-phenylindole (DAPI) to visualize nuclei. Stained cells were spread on coverslips in Vectashield mounting media (Burlingame, Calif.) and sealed onto slides with nail polish. Fluorescence microscopy was used to determine mitotic indices.

MAP-rich microtubules = experiment: Microtubule mean length distributions, transmission electron microscopy; assay type: biochemical, bovine; conditions: in words
Procedure: Transmission electron microscopy was used to determine the mean length distribution of microtubules in the absence or presence of tested agent. At 75 minutes and prior to sedimentation, 10 μl aliquots from the polymer mass experiments were fixed by dilution into 290 μl PEM100-buffered 0.2% glutaraldehyde. Thirty microliters of fixed sample was settled onto formvar-coated 150 ICG mesh electron microscope grids for 90 seconds. Excess sample was wicked off with Whatman filter paper. Thirty microliters of cytochrome C (1 mg/ml) was applied for 30 seconds to enhance protofilament resolution and facilitate negative staining. Uranyl acetate (1.5%) was applied for 20 seconds and the excess was wicked off Grids were viewed in a Jeol electron microscope-1200 EX11 at 2000× and 30,000× magnification. The Zeiss MOPIII was used to determine microtubule length distributions and mean lengths for at least 100 microtubules per sample.

HuVEC = experiment: Action on microtubule function, α-tubulin staining; conditions: 2 μM, thirty minutes exposure
MCF-7 human breast tumor = experiment: MCF-7 Human Breast Tumor Xenograft Model; assay type: in vivo, nude mice; conditions: in combination with taxotere
Procedure: Animals used were (exceptions are indicated for individual studies): female nude mice (nu/nu) between 5 and 6 weeks of age (˜20 g, Harlan); group size was 9-10 mice per group unless otherwise indicated.
(§1) Selected novel compounds were administered as monotherapy via the intraperitoneal (i.p.) route at the doses indicated for the individual study; for the combination studies the selected reference chemotherapy agents were injected 15-30 min prior to the compound.
(§2) Saline dilutions are used to achieve the injection concentrations used for the reference compounds.
Female nude mice (˜20 g) were implanted s.c. with 21-day release estrogen (0.25 mg) pellets 24 hours prior to the s.c. implantation with MCF-7 tumor fragments (harvested from s.c. tumors in nude mice hosts). The study then proceeded as described for the HT-29 model, using taxotere as the standard chemotherapy agent.
In this model unless otherwise noted for the individual study, the novel compounds were injected via the intraperitoneal route daily on Days 1-5, inclusive (qdx5); taxotere was administered intravenously on Days 1, 3 and 5 (qodx3).
The doses of the compounds were administered on Days 1, 2, 3, 4, and 7; Taxotere was administered on Days 1, 3 and 7.

[3] = test system: HL-60/MX-2 (Mitoxantrone-Resistant); experiment: Drug resistant cell line pair, cytotoxicity (Example 10B); assay type: cell-based, human; conditions: Homo sapiens, HL60/MX2; HL-60 Resistant (HL-60/MX-2)
From the text: (§3) 2) Human Acute Promyelocytic Leukemia Cell Line Pair: HL-60 (Mitoxantrone-Sensitive) and HL-60/MX-2 (Mitoxantrone-Resistant)

[4] = test system: MES-SA (Taxol Sensitive) human uterine sarcoma; experiment: as above; assay type: cell-based
From the text: (§4) 1) Human Uterine Sarcoma Tumor Cell Line Pair: MES-SA (Taxol Sensitive) and MES-SA/Dx5 (Taxol Resistant).

[5] = test system: MES-SA/Dx5 (Taxol Resistant) human uterine sarcoma; experiment: as above; assay type: cell-based
From the text: as §4

HT-29 human colon tumor = experiment: HT-29 Human Colon Tumor Xenograft Model; assay type: in vivo
Procedure: as §1, §2
Animals were implanted subcutaneously (s.c.) by trocar with fragments of HT-29 tumors harvested from s.c. growing tumors in nude mice hosts. When the tumor size reached 5 mm×5 mm (about 10-17 days) the animals were matched into treatment and control groups. Mice were weighed twice weekly and tumor measurements were obtained using calipers twice weekly, starting on Day 1. The tumor measurements were converted to estimated mg tumor weight using the formula (W^2×L)/2. When the estimated tumor weight of the control group reached an average of 1000 mg the mice were weighed, sacrificed and the tumor removed.

[6] = test system: B16-F10 (murine melanoma); experiment: Tumor panel screen cytotoxicity (Example 10A); assay type: cell-based
From the text: (§5) Cells were maintained at subconfluent densities in their respective culture media.

[7] = Tumor panel screen cytotoxicity (Example 10A); assay type: cell-based, human; conditions: human, CCD-27sk normal fibroblast cells; CCD-27sk Fibroblast; maximum cytotoxic effect
From the text: as §5

[8] = test system: CCD-27sk (normal human fibroblast); experiment: Tumor panel screen cytotoxicity (Example 10A); assay type: cell-based; conditions: Homo sapiens; CCD-27sk Fibroblast
From the text: as §5

[9] = test system: NCI-H292 (human non-small cell lung tumor); experiment: Tumor panel screen cytotoxicity (Example 10A); assay type: cell-based
From the text: as §5

[10] = test system: OVCAR-3 (human ovarian tumor); experiment: Tumor panel screen cytotoxicity (Example 10A); assay type: cell-based; conditions: OVCAR-3 Ovary
From the text: as §5

HT29 (human colon tumor) = experiment: Tumor panel screen cytotoxicity (Example 10A); assay type: cell-based; conditions: HT-29 Colon
From the text: as §5

[11] = test system: MDA-MB-231 (human breast tumor); experiment: Tumor panel screen cytotoxicity (Example 10A); assay type: cell-based; conditions: MDA-MB-231 Breast
From the text: as §5

[12] = test system: PC3 (human prostate tumor); experiment: Tumor panel screen cytotoxicity (Example 10A); assay type: cell-based; conditions: PC-3 Prostate
From the text: as §5

[13] = test system: HL-60 (Mitoxantrone-Sensitive) human acute promyelocytic leukemia; experiment: Drug resistant cell line pair, cytotoxicity (Example 10B); assay type: cell-based; conditions: HL-60 Sensitive
From the text: as §3

Aspergillus fumigatus = experiment: Antifungal susceptibility testing, broth dilution (MIC/MFC); assay type: cell-based; conditions: Aspergillus fumigatus; for MIC: read-out: MIC
Procedure, shortened: (§6)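 Tested against two isolates per species (one for C. glabrata). After MIC, fungicidal concentration determined by plating 0.1 μl from MIC and each higher concentration.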

Candida albicans = experiment: as above; assay type: cell-based; conditions: Candida albicans; C. albicans 90028; read-out: MIC
Procedure, shortened: as §6

Candida glabrata = experiment: as above; assay type: cell-based; conditions: Nakaseomyces glabratus; C. glabrata; read-out: MIC
Procedure, shortened: as §6

[14] = Table 28, concentration effecting 25% of the maximal mitotic block
[15] = Table 29, concentration effecting 50% of the maximal mitotic block

COc1ccc(/C=C\c2cc(OC)c(OC)c(OC)c2)cc1O [CA4, Combretastatin A4]
% time spent, Attenuation [1, 14]: 39.50%
% time spent, Growth [1, 14]: 35.31%
% time spent, Shortening [1, 14]: 25.19%
Freq. of Catastrophe [1, 14]: 1.52 min⁻¹
Freq. of Rescue [1, 14]: 1.90 min⁻¹
Mean duration, Attenuation [1, 14]: 0.45 min
Mean duration, Growth [1, 14]: 0.27 min
Mean duration, Shortening [1, 14]: 0.21 min
Mean rates, Growth [1, 14]: 10.59 μm/min
Mean rates, Shortening [1, 14]: 40.21 μm/min
Dyn. ([1]; Table 28, dynamicity, concentration effecting 25% of the maximal mitotic block): 13.87 μm/min
% time spent, Attenuation [1, 15]: 36.23%
% time spent, Growth [1, 15]: 43.64%
% time spent, Shortening [1, 15]: 20.13%
Dynamicity [1, 15]: 10.91 μm/min
Freq. of Catastrophe [1, 15]: 1.09 min⁻¹
Freq. of Rescue [1, 15]: 2.79 min⁻¹
Mean duration, Attenuation [1, 15]: 0.55 min
Mean duration, Growth [1, 15]: 0.33 min
Mean duration, Shortening [1, 15]: 0.22 min
Mean rates, Growth [1, 15]: 11.21 μm/min
Mean rates, Shortening [1, 15]: 29.88 μm/min
MT dynamic instability ([1]; concentrations effecting 25% or 50% of maximal mitotic block): did not have a measurable effect on MT dynamic instability
IC50 [2]: 5.4 ± 0.7 nM
MT nucleation (MAP-rich microtubules): did not affect MT nucleation

CC(C)(C)c1[nH]cnc1/C=C1\NC(=O)[C@H](Cc2ccccc2)NC1=O [t-butyl-phenylahistin]
microtubule depolymerization in HuVEC cells (HuVEC): induced microtubule depolymerization
effect on estimated tumor growth (MCF-7 human breast tumor): significant potentiation of taxotere
IC50 [3]: 175 nM
IC50 ([4]; Homo sapiens, MES-SA, CsA Pretreat, Studies II-III in separate lines): 162 nM
IC50 ([4]; Homo sapiens, MES-SA, No CsA, Studies I-III in separate lines): 144 nM
IC50 ([4]; No CsA, Studies I-III in separate lines): 122 nM
IC50 ([5]; Homo sapiens, MES-SA/Dx5, MES-SA/DX5 Resistant, CsA Pretreat, Studies II-III in separate lines): 622 nM
IC50 ([5]; Homo sapiens, MES-SA/Dx5, MES-SA/DX5 Resistant, No CsA, Studies I-III in separate lines): 825 nM
IC50 ([5]; MES-SA/DX5 Resistant, No CsA, Studies I-III in separate lines): 694 nM
potency in the resistant MES-SA/DX5 line vs the sensitive line ([5]; in words): only slightly reduced
Comments (combination with CPT-11) (HT-29 human colon tumor; NPI compound + CPT-11 100 ip qwx3, study and dose as in the line): Synergy
NPI-Compound Result TGI % (HT-29 human colon tumor; Study 2139, monotherapy 30 mg/kg ip q3dx5): No Effect
Combination Results TGI % (HT-29 human colon tumor; Study 2139, t-butyl-phenylahistin 30 mg/kg ip q3dx5 + CPT-11 100 ip qwx3): 77.7 *, # %
Exceed NCI Criterion (TGI ≧ 58%) (HT-29 human colon tumor; which treatment group exceeds the criterion, NPI compound, CPT-11 100 ip qwx3 or combination, study and dose as in the line): Combination
IC50 ([6]; Mus musculus): 736 nM
% Cytotoxicity Mean ([6]; maximum cytotoxic effect): 74%
cytotoxicity at 48 h [7]: 45%
IC50 [8]: > 20000 nM
IC50 ([9]; Homo sapiens): 384 nM
% Cytotoxicity Mean ([9]; maximum cytotoxic effect): 65%
IC50 ([10]; Homo sapiens): > 20000 nM
% Cytotoxicity Mean ([10]; maximum cytotoxic effect): 37%
% Cytotoxicity Mean (HT29 (human colon tumor); maximum cytotoxic effect): 88%
IC50 (HT29 (human colon tumor); Homo sapiens): 420 nM
IC50 ([11]; Homo sapiens): 387 nM
% Cytotoxicity Mean ([11]; maximum cytotoxic effect): 65.5%
IC50 ([12]; Homo sapiens): 174 nM
% Cytotoxicity Mean ([12]; maximum cytotoxic effect): 59.5%
IC50 [13]: 255 nM
MIC (Aspergillus fumigatus; A. fumigatus isolate #1): > 16 µg/mL
MFC (Aspergillus fumigatus; A. fumigatus isolate #2): 0.125 µg/mL (≈ 0.369 µM)
MIC (Aspergillus fumigatus; A. fumigatus isolate #2): < 0.03 µg/mL
MIC (Candida albicans): > 32 µg/mL
MIC (Candida glabrata): > 32 µg/mL

Source: patent publication US8129527B2, “Analogs of dehydrophenylahistins and their therapeutic use” (Nereus Pharmacuticals, Inc., priority 2006, dated 2012)
